Where “and” joins values, the source holds several entries; their conditions need not be identical. Equal entries are not always repeated.
System: ES-2 ovarian cancer
Experiment: ES-2 ovarian tumor xenograft growth
Type: in vivo, mouse
Experimental: 4–6 weeks old female BALB/c nude mice were used for most experiments, with the exception of 6–8 weeks old female C57BL/6 mice were used for B16F10 experiments, and 6–8 weeks old male BALB/c nude mice and SD rats were used for pharmacokinetic experiments. All animals were purchased from Shanghai SIPPR-Bk Lab Animal Co., Ltd. All animals were housed under a regimen of 12 h light/12 h dark cycles and specific pathogen-free conditions. 5×10^6 NCI-H526, ES-2, MDA-MB231, A2780, A375, B16F10, and TMD-8 cells (0.1 ml) were injected subcutaneously into female nude mice. The melanoma patient-derived xenograft model was derived from a human melanoma sample (BRAF, NARS and NF1 wild type, and p53 mutant) removed from a patient in Xiangya Hospital. Surgically removed tumor fragments were implanted subcutaneously into female NSG mice. When the tumors grew to ~1000 mm^3, they were harvested and cryopreserved or immediately re-implanted for expansion or experiments. Mouse body weight and tumor sizes were measured every 3 days. Once the tumors grew to 150–200 mm^3, mice were treated with the compounds as described in the Figures. 1 × 10^6 A2780 cells (1 ml) were injected into the abdominal cavity of nude mice. Ascitic volume and tumor weight were measured by an electronic balance. All the procedures were evaluated and approved by the Institutional Animal Care and Use Committee of Central South University and Yale University.
Supplementary Figure 9. […]
PO, oral administration; QD, once daily; BID, twice daily; D, day. (c,d) Tumor growth curves for ES2 ovarian tumor (c), MDA-MB231 breast tumor (d) bearing mice treated with the indicated compounds for 21 days. Compounds were orally administrated once daily. Data are presented as mean ± SEM from 6 different mice. p values were calculated using two-tailed, unpaired t tests.
**, p<0.01; ***, p<0.001. Source data are provided as a Source Data file. […]

[1] = ES-2, 1mg/kg p.o. QD x 21D, day 7, group AVG
[2] = ES-2, 1mg/kg p.o. QD x 21D, day 7, individual animals
[3] = ES-2, 1mg/kg p.o. QD x 21D, day 11, group AVG
[4] = ES-2, 1mg/kg p.o. QD x 21D, day 11, individual animals
[5] = ES-2, 1mg/kg p.o. QD x 21D, day 14, group AVG
[6] = ES-2, 1mg/kg p.o. QD x 21D, day 14, individual animals
[7] = ES-2, 1mg/kg p.o. QD x 21D, day 17, group AVG
[8] = ES-2, 1mg/kg p.o. QD x 21D, day 17, individual animals
[9] = ES-2, 1mg/kg p.o. QD x 21D, day 20, group AVG
[10] = ES-2, 1mg/kg p.o. QD x 21D, day 20, individual animals
[11] = ES-2, 3mg/kg p.o. QD x 21D, day 0, group AVG
[12] = ES-2, 3mg/kg p.o. QD x 21D, day 0, individual animals
[13] = ES-2, 3mg/kg p.o. QD x 21D, day 4, group AVG
[14] = ES-2, 3mg/kg p.o. QD x 21D, day 4, individual animals
[15] = ES-2, 3mg/kg p.o. QD x 21D, day 7, group AVG
[16] = ES-2, 3mg/kg p.o. QD x 21D, day 7, individual animals
[17] = ES-2, 3mg/kg p.o. QD x 21D, day 11, group AVG
[18] = ES-2, 3mg/kg p.o. QD x 21D, day 11, individual animals
[19] = ES-2, 3mg/kg p.o. QD x 21D, day 14, group AVG
[20] = ES-2, 3mg/kg p.o. QD x 21D, day 14, individual animals
[21] = ES-2, 3mg/kg p.o. QD x 21D, day 17, group AVG
[22] = ES-2, 3mg/kg p.o. QD x 21D, day 17, individual animals
[23] = ES-2, 3mg/kg p.o. QD x 21D, day 20, group AVG
[24] = ES-2, 3mg/kg p.o. QD x 21D, day 20, individual animals

## Cc1nnn(C)c1-c1cnc2c3c4cnn(C)c4ccc3n([C@H](c3ccccc3)C3CCOCC3)c2c1 [NHWD-870]
ES-2, 1mg/kg p.o. QD x 21D, day 4, individual animals
  Tumor volume: 194.017 mm^3 and 470.917 mm^3 and 449.112 mm^3 and 221.425 mm^3 and 395.531 mm^3 and 184.213 mm^3
[1]
  % Tumor growth, AVG: 143.924%
  Tumor volume, AVG: 449.139 mm^3
[2]
  % Tumor growth: 108.101% and 224.596% and 137.285% and 85.7809% and 134.14% and 173.642%
  Tumor volume: 337.084 mm^3 and 675.959 mm^3 and 610.381 mm^3 and 264.522 mm^3 and 523.665 mm^3 and 283.22 mm^3
[3]
  % Tumor growth, AVG: 266.816%
  Tumor volume, AVG: 666.569 mm^3
[4]
  % Tumor growth: 228.373% and 360.792% and 253.375% and 196.866% and 222.989% and 338.501%
  Tumor volume: 531.902 mm^3 and 959.584 mm^3 and 909.007 mm^3 and 422.689 mm^3 and 722.381 mm^3 and 453.85 mm^3
[5]
  % Tumor growth, AVG: 321.081%
  Tumor volume, AVG: 765.856 mm^3
[6]
  % Tumor growth: 250.605% and 403.815% and 289.634% and 267.746% and 320.675% and 394.009%
  Tumor volume: 567.913 mm^3 and 1049.18 mm^3 and 1002.28 mm^3 and 523.611 mm^3 and 940.859 mm^3 and 511.301 mm^3
[7]
  % Tumor growth, AVG: 435.897%
  Tumor volume, AVG: 1001.66 mm^3
[8]
  % Tumor growth: 362.904% and 591.91% and 468.225% and 329.053% and 437.775% and 425.513%
  Tumor volume: 749.817 mm^3 and 1440.88 mm^3 and 1461.68 mm^3 and 610.902 mm^3 and 1202.76 mm^3 and 543.908 mm^3
[9]
  % Tumor growth, AVG: 569.584%
  Tumor volume, AVG: 1249.88 mm^3
[10]
  % Tumor growth: 729.742% and 506.506% and 450.639% and 539.702% and 621.332%
  Tumor volume: 1727.91 mm^3 and 1560.15 mm^3 and 784.021 mm^3 and 1430.72 mm^3 and 746.582 mm^3
[11]
  % Tumor growth, AVG: 0%
  Tumor volume, AVG: 180.514 mm^3
[12]
  % Tumor growth: 0%
  Tumor volume: 100.979 mm^3 and 154.514 mm^3 and 151.014 mm^3 and 168.003 mm^3 and 255.303 mm^3 and 253.274 mm^3
[13]
  % Tumor growth, AVG: 106.339%
  Tumor volume, AVG: 355.904 mm^3
[14]
  % Tumor growth: 103.958% and 55.5923% and 228.844% and 138.521% and 84.9035% and 26.2158%
  Tumor volume: 205.955 mm^3 and 240.412 mm^3 and 496.599 mm^3 and 400.722 mm^3 and 472.064 mm^3 and 319.672 mm^3
[15]
  % Tumor growth, AVG: 146.015%
  Tumor volume, AVG: 424.47 mm^3
[16]
  % Tumor growth: 172.578% and 87.9551% and 265.997% and 159.587% and 128.487% and 61.4849%
  Tumor volume: 275.247 mm^3 and 290.417 mm^3 and 552.706 mm^3 and 436.115 mm^3 and 583.334 mm^3 and 408.999 mm^3
[17]
  % Tumor growth, AVG: 196.378%
  Tumor volume, AVG: 514.744 mm^3
[18]
  % Tumor growth: 265.602% and 115.285% and 217.088% and 283.945% and 177.512% and 118.838%
  Tumor volume: 369.182 mm^3 and 332.645 mm^3 and 478.846 mm^3 and 645.04 mm^3 and 708.495 mm^3 and 554.259 mm^3
[19]
  % Tumor growth, AVG: 274.736%
  Tumor volume, AVG: 656.818 mm^3
[20]
  % Tumor growth: 256.941% and 190.731% and 428.695% and 356.714% and 248.463% and 166.876%
  Tumor volume: 360.436 mm^3 and 449.22 mm^3 and 798.401 mm^3 and 767.293 mm^3 and 889.635 mm^3 and 675.926 mm^3
[21]
  % Tumor growth, AVG: 372.557%
  Tumor volume, AVG: 841.506 mm^3
[22]
  % Tumor growth: 349.385% and 221.259% and 495.296% and 524.547% and 433.889% and 210.963%
  Tumor volume: 453.785 mm^3 and 496.39 mm^3 and 898.977 mm^3 and 1049.26 mm^3 and 1363.03 mm^3 and 787.588 mm^3
[23]
  % Tumor growth, AVG: 570.165%
  Tumor volume, AVG: 1173.35 mm^3
[24]
  % Tumor growth: 589.68% and 492.445% and 716.71% and 706.345% and 598.649% and 317.161%
  Tumor volume: 696.433 mm^3 and 915.41 mm^3 and 1233.34 mm^3 and 1354.69 mm^3 and 1783.67 mm^3 and 1056.56 mm^3
ES-2 ovarian cancer, oral once daily 21 days
  effect on tumor growth: strong tumor-suppressive effects
